In patent US20080051466A1, “Isoalpha acid based protein kinase modulation cancer treatment” (Metaproteomics, LLC, priority 2006, published 2008):
Marks after values point to notes of the source that are not given here.

What was measured:
LPS/3T3-L1 adipocytes [1] = assay: IL-6 secretion in LPS/3T3-L1 adipocytes; assay type: cell-based, murine; details: 100 ng LPS/ml, D5 3T3-L1
LPS/3T3-L1 adipocytes [2] = assay: Adiponectin secretion in LPS/3T3-L1 adipocytes; assay type: cell-based, murine; details: 100 ng/ml LPS; for induction of adiponectin secretion: any of the doses tested
[3] = test system: A549 pulmonary epithelial cells; assay: PGE2 biosynthesis in A549 cells stimulated by mite dust allergen; assay type: cell-based, human; details: 10 μg/ml, mite dust allergen 1000 ng/ml, 18 h
Method: The filtrate was termed mite dust allergen and used to test for induction of PGE2 biosynthesis in A549 pulmonary epithelial cells.
Mite allergen was added to the culture medium to achieve a final concentration of 1000 ng/ml. Eighteen hours later, the media were sampled for PGE2 determination.

[4] = test system: TNFα-treated 3T3-L1 adipocytes; assay: Adiponectin secretion from TNFα-treated 3T3-L1 adipocytes; assay type: cell-based, murine; details: for increase of adiponectin secretion in the presence of TNFα: optimal concentration; for Concentration of maximum adiponectin secretion: over four doses
Method: 3T3-L1 cells were seeded at an initial density of 1×10^4 cells/cm^2 in 96-well plates. For two days, the cells were allowed grow to reach confluence. Following confluence, the cells were forced to differentiate into adipocytes by the addition of differentiation medium; this medium consisted of (1) 10% FBS/DMEM (high glucose); (2) 0.5 mM methylisobutylxanthine; (3) 0.5 μM dexamethasone and (4) 10 μg/ml insulin (MDI medium). From Day 3 through Day 5, the medium was changed to post-differentiation medium consisting of 10% FBS in DMEM. […] On Day 6, the supernatant medium was sampled for adiponectin determination.
(§1) Adiponectin Assay—The adiponectin secreted into the medium was quantified using the Mouse Adiponectin Quantikine® Immunoassay kit with no modifications (R&D Systems, Minneapolis, Minn.).

NF-kBp65 = NF-kBp65 nuclear translocation in TNFα-treated 3T3-L1 adipocytes; assay type: cell-based, murine; details: 2.5 and 5.0 μg/ml, three or 24 hours following TNFα
Method: Cell Culture and Treatment—Following differentiation 3T3-L1 adipocytes were maintained in post-differentiation medium for an additional 40 days. […] Hops derivatives and the positive control pioglitazone were tested at concentrations of 2.5, and 5.0 μg/ml. Test materials were added 1 hour prior to and nuclear extracts were prepared three and 24 hours following treatment with TNFα.
ELISA-3T3-L1 adipocytes were maintained in growth media for 40 days following differentiation. Nuclear NF-kBp65 was determined using the TransAM™ NF-kB kit from Active Motif (Carlsbad, Calif.) was used with no modifications. Jurkat nuclear extracts provided in the kit were derived from cells cultured in medium supplemented with 50 ng/ml TPA (phorbol, 12-myristate, 13 acetate) and 0.5 μM calcium ionophore A23187 for two hours at 37° C. immediately prior to harvesting.
Protein assay—Nuclear protein was quantified using the Active Motif Fluorescent Protein Quantification Kit.

[5] = test system: insulin-resistant 3T3-L1 adipocytes; assay: Adiponectin secretion from insulin-resistant 3T3-L1 adipocytes; assay type: cell-based, murine; details: 50.0 μg/ml
Method: 3T3-L1 cells were seeded at an initial density of 1×10^4 cells/cm^2 in 96-well plates. For two days, the cells were allowed grow to reach confluence. Following confluence, the cells were forced to differentiate into adipocytes by the addition of differentiation medium; this medium consisted of (1) 10% FBS/DMEM (high glucose); (2) 0.5 mM methylisobutylxanthine; (3) 0.5 μM dexamethasone and (4) 10 μg/ml insulin (MDI medium). From Day 3 through Day 5, the medium was changed to post-differentiation medium consisting of 10 μg/ml insulin in 10% FBS/DMEM.
Briefly, on Day 6, cells were maintained in serum-free media containing 0.5% bovine serum albumin (BSA) for three hours and then treated with 1 μg insulin/ml plus solvent or insulin plus test material. […] Twenty-four hours later, the supernatant medium was sampled for adiponectin determination.
as §1
Substituting {relative adiponectin secretion/[concentration])} for the independent variable v/[S] and {relative adiponectin secretion} for the dependant variable {v}, produced a relationship of the form y=mx+b. […]

O=C(O)c1ccccc1O [salicylic acid] was tested, and the “IL-6 Index at maximum inhibition” value (LPS/3T3-L1 adipocytes [1]; 50.0 μg/ml (dose of maximum inhibition)) was 0.52* and the “induction of adiponectin secretion” value (LPS/3T3-L1 adipocytes [2]) was “failed to induce adiponectin secretion”.
With CC(=O)Oc1ccccc1C(=O)O [Aspirin, aspirin] the “induction of adiponectin secretion” value (LPS/3T3-L1 adipocytes [2]) was “failed to induce adiponectin secretion”.
With Beta acids the “Percent PGE2 Inhibition” value [3] was 83%.
With CCc1ccc(CCOc2ccc(CC3SC(=O)NC3=O)cc2)nc1 (stereo not drawn) [Pioglitazone, pioglitazone] the “increase of adiponectin secretion in the presence of TNFα” value ([4]; 10 ng TNFα/ml) was 80%, the “Adiponectin Index (relative maximum adiponectin secretion)” value ([4]; 10 ng TNFα/ml, [Adiponectin]Test/[Adiponectin]TNFα control) was 1.47 and the “Adiponectin Index Observed” value ([4]; 1.0 μg/ml, TNFα/3T3-L1, curcumin/XN combinations, indexed to TNFα control) was 1.80. For the same molecule, the “IL-6 Index at maximum inhibition” value (LPS/3T3-L1 adipocytes [1]; 5.00 μg/ml (dose of maximum inhibition)) was 0.37* and the “inhibition of the amount of nuclear NF-kBp65” value (NF-kBp65) was “did not inhibit”.
With CC(C)CCC1=C(O)C(C(=O)C(C)C)=C(O)C(CCC(C)C)(CCC(C)C)C1=O [Hexahydrocolupulone (HHCL)] the Adiponectin/IL-6 [5] was 0.60#.
With COc1ccc2c(c1)c(CC(=O)O)c(C)n2C(=O)c1ccc(Cl)cc1 [Indomethacin, indomethacin] the “increase of adiponectin secretion in the presence of TNFα” value ([4]; 10 ng TNFα/ml) was 94%, the “Concentration of maximum adiponectin secretion” value ([4]; 10 ng TNFα/ml) was 5.0 µg/mL and the “Concentration of maximum adiponectin secretion” value ([4]; 10 ng TNFα/ml, listed as indomethacin) was 2.5 µg/mL. For the same molecule, the “Maximum inhibition of IL-6 secretion, % Inhibition” value (LPS/3T3-L1 adipocytes [1]; 5.00 μg/ml) was 53* % and the maximum adiponectin stimulation (LPS/3T3-L1 adipocytes [2]; […]) was 9%.
